# From US20230365618A1, “CRYSTALLINE THIOCHOLESTEROL” (Durect Corporation, priority 2020, published 2023)
# Tests used:
# [1] = system: lipid biosynthesis; cholesterol secretion and degradation; details: shown previously; cited from earlier work
# [2] = Relative thermodynamic stability of the forms from crystal density, DSC melt onset and heat of fusion; format: physicochemical; details: suggested by higher crystal density and melt onset (with higher heat of fusion)
# Description: A tau lag adjustment is performed with indium, tin, and zinc. […] The adjustment is then verified with octane, phenyl salicylate, indium, tin, and zinc. […] A weighed aluminum pan configured as the sample pan was placed on the […] side of the cell.
# [3] = Dynamic vapor sorption/desorption (DVS); format: physicochemical; details: for hygroscopicity: DVS plot
Structure (SMILES),cholesterol secretion and degradation [1],lipid biosynthesis [1],thermodynamic stability relative to another form [2],"weight change during the DVS cycle ([3]; 5% to 95% RH, sorption and desorption, FIG. 6) [%]",hygroscopicity ([3]; FIG. 6),"hygroscopicity ([3]; FIG. 6, listed as Crystalline thiocholesterol Form A)",solid form of material recovered from the DVS experiment (x-ray powder diffraction) ([3]; after DVS cycle 5% to 95% RH)
"CC(C)CCC[C@@H](C)[C@H]1CC[C@H]2[C@@H]3CC=C4C[C@@H](S)CC[C@]4(C)[C@H]3CC[C@]12C [Thiocholesterol, (3 S,8S,9S,10R,13R,14S,17R)-17-[(1R)-1,5-dimethylhexyl]-10,13-dimethyl-2,3,4,7,8,9,11,12,14,15,16,17-dodecahydro-1H-cyclopenta[a] phenanthrene-3-thiol]",increases,decreases,,,,,
CC(C)CCC[C@@H](C)[C@H]1CC[C@H]2[C@@H]3CC=C4C[C@@H](S)CC[C@]4(C)[C@H]3CC[C@]12C [crystalline thiocholesterol Form A],,,more thermodynamically stable than Crystalline Thiocholesterol Form B,0.25,low hygroscopicity,non-hygroscopic,identified as crystalline thiocholesterol Form A
